Reference: patent US20260337208A1, “HETEROCYCLIC DERIVATIVES AS JANUS KINASE INHIBITORS” (CHIESI FARMACEUTICI S.P.A., priority 2022, published 2026)

Key:
[1] = test system: pSTAT6 in BEAS-2B human cell line; assay: Inhibition of IL-13 induced pSTAT6 in BEAS; type: cell-based; settings: for IC50: Homo sapiens, BEAS-2B, 0.5 h, IL-13 trigger, 30 min, parent compound; for Fold difference parent vs predicted acid metabolite: ratio=IC50 predicted acid metabolite/IC50 ester
Procedure: BEAS-2B human cell line was seeded (100.000 cells/well) and incubated for 48 h at 37° C., 5% CO2, 95% humidity. Compounds were added and incubated 30 min followed by IL-13 as trigger. After 30 min incubation, cells were lysed and pSTAT6 determined by Fastscan phospho-stat6 (Tyr641) sandwich ELISA kit (cell signaling). Inhibitors were tested at 11 consecutive 5-fold dilutions starting from 10 μM (10 μM-[…]) in duplicate. Calculation of IC50 data, curves and QC analysis were made using Excel tools and GraphPadPrism software. QC criteria parameters: Z′≥0.35, Hill Slope range 0.5 to 5, S:B>2.

[2] = biological target: TYK2 (Homo sapiens, UniProt P29597); assay: Biochemical potency on Tyk2, TR-FRET (LANCE Ultra kinase assay); settings: ATP corresponding to Km; cell-free; read-out: TYK2 inhibitory activity (pIC50) (converted)
Sequence of TYK2 (P29597 whole entry, canonical isoform): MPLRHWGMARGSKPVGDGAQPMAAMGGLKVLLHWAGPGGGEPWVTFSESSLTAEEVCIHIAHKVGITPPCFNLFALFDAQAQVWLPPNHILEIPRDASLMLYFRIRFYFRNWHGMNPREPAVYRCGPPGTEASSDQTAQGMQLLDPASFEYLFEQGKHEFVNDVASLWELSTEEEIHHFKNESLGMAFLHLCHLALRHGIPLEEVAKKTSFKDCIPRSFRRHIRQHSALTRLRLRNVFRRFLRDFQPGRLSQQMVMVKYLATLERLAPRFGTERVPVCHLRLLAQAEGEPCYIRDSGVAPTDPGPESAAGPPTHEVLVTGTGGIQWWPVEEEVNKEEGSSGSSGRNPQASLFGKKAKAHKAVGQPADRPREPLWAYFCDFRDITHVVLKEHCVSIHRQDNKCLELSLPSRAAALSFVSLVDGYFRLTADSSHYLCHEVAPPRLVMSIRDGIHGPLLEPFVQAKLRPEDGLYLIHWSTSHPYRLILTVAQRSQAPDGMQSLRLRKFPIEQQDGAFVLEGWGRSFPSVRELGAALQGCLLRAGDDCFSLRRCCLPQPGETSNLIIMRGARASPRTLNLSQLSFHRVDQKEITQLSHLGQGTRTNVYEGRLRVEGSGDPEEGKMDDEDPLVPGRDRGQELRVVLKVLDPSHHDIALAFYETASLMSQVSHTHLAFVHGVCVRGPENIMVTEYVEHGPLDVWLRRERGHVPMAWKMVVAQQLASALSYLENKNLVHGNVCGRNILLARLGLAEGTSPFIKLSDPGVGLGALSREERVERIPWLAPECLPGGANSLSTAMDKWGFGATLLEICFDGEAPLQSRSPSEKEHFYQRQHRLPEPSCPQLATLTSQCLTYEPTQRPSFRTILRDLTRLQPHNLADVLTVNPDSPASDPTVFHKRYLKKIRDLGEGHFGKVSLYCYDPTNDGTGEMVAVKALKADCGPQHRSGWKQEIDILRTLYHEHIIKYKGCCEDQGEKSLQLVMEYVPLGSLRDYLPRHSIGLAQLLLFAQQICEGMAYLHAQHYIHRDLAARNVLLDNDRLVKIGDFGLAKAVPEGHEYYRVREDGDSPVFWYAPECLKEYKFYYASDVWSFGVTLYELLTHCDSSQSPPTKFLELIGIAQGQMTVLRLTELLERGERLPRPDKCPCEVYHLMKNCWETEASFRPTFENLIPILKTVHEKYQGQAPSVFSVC
Procedure: (§1) The objective of this study was to assess the capability of compounds to inhibit all 4 JAK isoforms activity in a cell-free environment. Assay for JAK 1, JAK 2, JAK 3 and TYK2 were performed by Time-resolved fluorescence resonance energy transfer (TR-FRET) technology. It consists in the interaction of two labelled binding partners detected by the energy transfer from an excited donor to an acceptor dye and measurement of light emission by the acceptor dye. LANCE Ultra kinase assay was used. In presence of JAK 1, JAK 2, JAK 3 and TYK2 kinases and ATP (corresponding to Km), the ULight peptide substrate (LANCE Ulight-JAK-1 (Tyr1023) Peptide, Perkin Elmer, TRF0121) is phosphorylated. It is then captured by Eu-anti-phospho-substrate antibody (LANCE Eu-W1024 Anti-phosphotyrosine (PT66), Perkin Elmer, AD0069), which bring the Eu-chelate donor and ULight acceptor dyes into close proximity. Upon excitation at 320 nm, the Eu-chelate transfers its energy to the ULight dye, resulting in a fluorescent light emission at 665 nm.
(§2) Serial dilutions of compounds in pure DMSO are prepared from 10 mM DMSO stock solutions. Compounds were tested in 384-well plate for 11 consecutive 5-fold dilutions starting from 20 μM highest concentration (20 μM-[…]). 200 nL of compound were transferred from mother plate to test plate by using Mosquito (TTP labtech). Assay was performed in 384-well Perkin Elmer test plate in 20 μL assay volume (kinase reaction) and 40 μL total volume (stopping reagent and antibody detection reagents). In 10 μL of substrate solution (peptide+ATP) 30/50/20/10 nM of peptide and 20/0.7/0.2/12 μM of ATP were added for JAK 1, JAK 2, JAK 3 and TYK2 respectively. 10 μL of enzyme solution was added to kinase reaction at these concentrations: 0.15/0.083/0.025/0.144 ng/μL of JAK 1, JAK 2, JAK 3 and TYK2 respectively. After shaking and 1.5 h of incubation at r.t., 20 μL of Stop (10 μL EDTA) and Detection mixture (10 μL Europium-anti-phospho antibody, final: 0.5 nM) were added. Reading was performed after 1 h of incubation on a En Vision 2104 reader (Perkin Elmer).
(§3) Calculation of IC50 data, curves and QC analysis was performed by using Excel tool and GraphPadPrism software, v9. Briefly, individual concentration-effect curves are generated by plotting the logarithm of the tested concentration of tested compounds (X) vs. corresponding percent inhibition values (Y) using least squares (ordinary) fit. Best fit IC50 values are calculated using Log (inhibitor) vs. normalized response—Variable slope equation, where Y=100/(1+10^((LogIC50−X)*HillSlope)). QC criteria parameters (Z′, S:B, R2, HillSlope) were checked for every IC50 curve. Calculation of IC50 data, curves and QC analysis were made using Excel tools and GraphPadPrism software. QC criteria parameters: Z′≥0.5, Hill Slope range 0.5 to 5, S:B>2.

[3] = biological target: JAK1 (Homo sapiens, UniProt P23458); assay: Biochemical potency on JAK1, TR-FRET (LANCE Ultra kinase assay); settings: ATP corresponding to Km; cell-free; read-out: JAK1 inhibitory activity (pIC50) (converted)
Sequence of JAK1 (P23458 whole entry): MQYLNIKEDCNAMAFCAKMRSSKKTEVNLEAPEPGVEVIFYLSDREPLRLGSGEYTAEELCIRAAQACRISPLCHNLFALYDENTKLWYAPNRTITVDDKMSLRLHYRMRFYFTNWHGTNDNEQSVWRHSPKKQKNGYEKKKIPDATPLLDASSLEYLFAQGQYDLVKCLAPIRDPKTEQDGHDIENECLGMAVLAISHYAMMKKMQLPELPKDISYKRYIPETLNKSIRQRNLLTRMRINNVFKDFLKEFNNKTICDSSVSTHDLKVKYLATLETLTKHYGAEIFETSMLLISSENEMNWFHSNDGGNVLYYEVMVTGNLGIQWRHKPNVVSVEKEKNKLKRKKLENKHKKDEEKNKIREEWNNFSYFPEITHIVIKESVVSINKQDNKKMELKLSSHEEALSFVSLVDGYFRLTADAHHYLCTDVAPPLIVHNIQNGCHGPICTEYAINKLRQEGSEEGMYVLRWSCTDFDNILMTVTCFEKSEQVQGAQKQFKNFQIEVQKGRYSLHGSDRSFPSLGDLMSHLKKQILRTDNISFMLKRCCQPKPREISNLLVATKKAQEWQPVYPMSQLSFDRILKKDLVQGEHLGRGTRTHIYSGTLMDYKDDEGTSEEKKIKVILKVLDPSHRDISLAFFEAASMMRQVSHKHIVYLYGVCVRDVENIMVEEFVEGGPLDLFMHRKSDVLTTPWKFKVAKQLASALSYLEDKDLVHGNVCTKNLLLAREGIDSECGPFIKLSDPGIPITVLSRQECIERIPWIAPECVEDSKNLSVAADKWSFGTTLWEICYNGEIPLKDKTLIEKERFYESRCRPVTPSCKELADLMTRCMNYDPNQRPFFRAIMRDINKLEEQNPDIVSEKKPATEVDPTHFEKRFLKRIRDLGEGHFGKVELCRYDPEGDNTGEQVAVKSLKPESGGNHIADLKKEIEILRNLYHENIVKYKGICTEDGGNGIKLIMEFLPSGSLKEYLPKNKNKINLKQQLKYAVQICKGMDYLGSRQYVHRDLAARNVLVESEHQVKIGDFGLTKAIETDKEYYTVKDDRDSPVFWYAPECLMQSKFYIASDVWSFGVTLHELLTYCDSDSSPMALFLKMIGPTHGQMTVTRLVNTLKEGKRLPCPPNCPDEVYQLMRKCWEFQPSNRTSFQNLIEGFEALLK
Procedure: as §1, §2, §3

[4] = biological target: T1, JAK3 (Homo sapiens, UniProt P52333); assay: Biochemical potency on JAK3, TR-FRET (LANCE Ultra kinase assay); settings: ATP corresponding to Km; cell-free; read-out: JAK3 inhibitory activity (pIC50) (converted)
T1 sequence (P52333 1-1124): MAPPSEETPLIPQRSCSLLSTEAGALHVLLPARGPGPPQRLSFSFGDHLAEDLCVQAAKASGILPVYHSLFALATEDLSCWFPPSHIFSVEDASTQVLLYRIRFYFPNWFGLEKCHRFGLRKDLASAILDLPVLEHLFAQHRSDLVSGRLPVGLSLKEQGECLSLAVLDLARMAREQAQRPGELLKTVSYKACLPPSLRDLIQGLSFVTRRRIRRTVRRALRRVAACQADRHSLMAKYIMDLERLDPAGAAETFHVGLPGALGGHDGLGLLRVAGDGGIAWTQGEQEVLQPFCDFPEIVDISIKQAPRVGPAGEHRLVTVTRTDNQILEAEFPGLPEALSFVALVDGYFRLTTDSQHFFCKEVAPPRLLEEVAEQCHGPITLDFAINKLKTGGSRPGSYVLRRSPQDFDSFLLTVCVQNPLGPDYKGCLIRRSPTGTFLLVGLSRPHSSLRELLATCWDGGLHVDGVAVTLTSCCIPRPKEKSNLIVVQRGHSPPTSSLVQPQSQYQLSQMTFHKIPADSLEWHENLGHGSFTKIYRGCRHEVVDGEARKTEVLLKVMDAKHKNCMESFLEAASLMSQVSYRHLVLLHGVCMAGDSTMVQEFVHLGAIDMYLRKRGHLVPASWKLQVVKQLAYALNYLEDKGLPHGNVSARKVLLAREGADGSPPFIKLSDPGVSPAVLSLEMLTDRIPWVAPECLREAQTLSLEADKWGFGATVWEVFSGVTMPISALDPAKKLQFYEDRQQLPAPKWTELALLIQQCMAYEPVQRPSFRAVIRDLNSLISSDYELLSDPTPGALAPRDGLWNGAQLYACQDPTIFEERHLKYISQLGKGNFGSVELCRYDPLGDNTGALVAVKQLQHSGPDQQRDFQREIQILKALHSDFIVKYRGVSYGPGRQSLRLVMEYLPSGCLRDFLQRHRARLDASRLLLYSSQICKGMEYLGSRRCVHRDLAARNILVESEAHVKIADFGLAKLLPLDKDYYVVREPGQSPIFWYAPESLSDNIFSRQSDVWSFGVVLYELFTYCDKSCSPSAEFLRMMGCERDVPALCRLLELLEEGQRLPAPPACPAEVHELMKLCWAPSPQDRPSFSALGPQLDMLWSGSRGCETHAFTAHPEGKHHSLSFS
Procedure: as §1, §2, §3

[5] = biological target: JAK2 (Homo sapiens, UniProt O60674); assay: Biochemical potency on JAK2, TR-FRET (LANCE Ultra kinase assay); settings: ATP corresponding to Km; cell-free; read-out: JAK2 inhibitory activity (pIC50) (converted)
Sequence of JAK2 (O60674 whole entry): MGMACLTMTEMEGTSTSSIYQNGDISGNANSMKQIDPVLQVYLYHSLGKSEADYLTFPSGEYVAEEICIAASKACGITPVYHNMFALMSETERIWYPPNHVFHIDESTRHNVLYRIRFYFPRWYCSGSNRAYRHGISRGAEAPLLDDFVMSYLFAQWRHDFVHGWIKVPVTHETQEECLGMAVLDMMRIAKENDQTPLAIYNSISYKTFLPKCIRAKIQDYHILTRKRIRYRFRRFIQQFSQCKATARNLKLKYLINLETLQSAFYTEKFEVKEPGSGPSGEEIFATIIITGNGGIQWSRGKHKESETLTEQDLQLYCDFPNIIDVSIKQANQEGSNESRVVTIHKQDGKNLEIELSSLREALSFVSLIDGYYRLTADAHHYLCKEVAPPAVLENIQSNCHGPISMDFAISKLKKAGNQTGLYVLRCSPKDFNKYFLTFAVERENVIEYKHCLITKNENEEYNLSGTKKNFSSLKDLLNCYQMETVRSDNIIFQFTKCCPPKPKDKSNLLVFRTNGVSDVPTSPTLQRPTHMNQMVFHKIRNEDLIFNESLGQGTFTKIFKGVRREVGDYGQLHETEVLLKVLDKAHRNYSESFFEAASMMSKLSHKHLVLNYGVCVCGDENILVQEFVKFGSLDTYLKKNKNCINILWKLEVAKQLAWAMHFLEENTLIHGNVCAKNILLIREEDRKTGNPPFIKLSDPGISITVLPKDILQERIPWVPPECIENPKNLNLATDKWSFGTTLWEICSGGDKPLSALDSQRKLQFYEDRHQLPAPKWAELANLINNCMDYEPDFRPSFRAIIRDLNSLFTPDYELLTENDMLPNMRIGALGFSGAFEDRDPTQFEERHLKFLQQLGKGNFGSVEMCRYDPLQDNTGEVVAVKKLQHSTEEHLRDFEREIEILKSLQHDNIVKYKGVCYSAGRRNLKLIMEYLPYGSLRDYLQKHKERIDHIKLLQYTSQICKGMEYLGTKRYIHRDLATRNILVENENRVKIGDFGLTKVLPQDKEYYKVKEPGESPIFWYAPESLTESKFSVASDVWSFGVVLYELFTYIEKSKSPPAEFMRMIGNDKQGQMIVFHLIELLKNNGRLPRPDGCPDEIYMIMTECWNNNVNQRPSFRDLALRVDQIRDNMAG
Procedure: as §1, §2, §3

Row | SMILES | IC50 [2] [nM] | IC50 [3] [nM] | IC50 [4] [nM] | IC50 [5] [nM] | IC50 [1] [nM] | Fold difference parent vs predicted acid metabolite [1]
1 | COCC(C)(C)OC(=O)C1CCN(CCNC(=O)c2nn(-c3cc4c(cc3OC)NCCO4)c3cc(-c4cnn5cccnc45)ncc23)CC1 [Example 5, 1-methoxy-2-methylpropan-2-yl 1-(2-(1-(6-methoxy-3,4-dihydro-2H-benzo[b][1,4]oxazin-7-yl)-6-(pyrazolo[1,5-a]pyrimidin-3-yl)-1H-pyrazolo[4,3-c]pyridine-3-carboxamido)ethyl)piperidine-4-carboxylate] | 5.01 to 50.1 | ≤ 5.01 | ≤ 5.01 | ≤ 5.01 | ≤ 5.01 | kkkk (ratio≥200)
2 | CCOC(=O)[C@H]1C[C@@H](OC(=O)Nc2nn(-c3cc4c(cc3OC)NCCS4)c3cc(-c4cnn5cccnc45)ncc23)C1 [Example 2, ethyl (1s,3s)-3-(((1-(6-methoxy-3,4-dihydro-2H-benzo[b][1,4]thiazin-7-yl)-6-(pyrazolo[1,5-a]pyrimidin-3-yl)-1H-pyrazolo[4,3-c]pyridin-3-yl)carbamoyl)oxy)cyclobutane-1-carboxylate] | 5.01 to 50.1 | ≤ 5.01 | ≤ 5.01 | ≤ 5.01 | 5.01 to 50.1 | –
3 | COc1cc2c(cc1-n1nc(C(=O)NCCN3CCC(C(=O)OCC(C)(C)CO)CC3)c3cnc(-c4cnn5cccnc45)cc31)OCCN2 [Example 15, 3-hydroxy-2,2-dimethylpropyl 1-(2-(1-(6-methoxy-3,4-dihydro-2H-benzo[b][1,4]oxazin-7-yl)-6-(pyrazolo[1,5-a]pyrimidin-3-yl)-1H-pyrazolo[4,3-c]pyridine-3-carboxamido)ethyl)piperidine-4-carboxylate] | 5.01 to 50.1 | ≤ 5.01 | ≤ 5.01 | ≤ 5.01 | ≤ 5.01 | kkkk (ratio≥200)
4 | CCCOC(=O)CN(C)CCNC(=O)c1nn(-c2cc3c(cc2OC)NCCO3)c2cc(-c3cnn4cccnc34)ncc12 [Example 6, propyl N-(2-(1-(6-methoxy-3,4-dihydro-2H-benzo[b][1,4]oxazin-7-yl)-6-(pyrazolo[1,5-a]pyrimidin-3-yl)-1H-pyrazolo[4,3-c]pyridine-3-carboxamido)ethyl)-N-methylglycinate] | > 50.1 | 5.01 to 50.1 | ≤ 5.01 | ≤ 5.01 | 5.01 to 50.1 | –
5 | COc1cc2c(cc1-n1nc(C(=O)OCCCN(C)C)c3cnc(-c4cnn5cccnc45)cc31)SCCN2 [Example 7, 3-(dimethylamino)propyl 1-(6-methoxy-3,4-dihydro-2H-benzo[b][1,4]thiazin-7-yl)-6-(pyrazolo[1,5-a]pyrimidin-3-yl)-1H-pyrazolo[4,3-c]pyridine-3-carboxylate] | ≤ 5.01 | ≤ 5.01 | ≤ 5.01 | ≤ 5.01 | ≤ 5.01 | –

Second part, led by results:

Row | IC50 [2] [nM] | IC50 [3] [nM] | IC50 [4] [nM] | IC50 [5] [nM] | SMILES | IC50 [1] [nM] | Fold difference parent vs predicted acid metabolite [1]
6 | 5.01 to 50.1 | ≤ 5.01 | ≤ 5.01 | ≤ 5.01 | COc1cc2c(cc1-n1nc(C(=O)NCCN3CCC(C(=O)OC4CCN(C)CC4)CC3)c3cnc(-c4cnn5cccnc45)cc31)OCCN2 [Example 42, 1-methylpiperidin-4-yl 1-(2-(1-(6-methoxy-3,4-dihydro-2H-benzo[b][1,4]oxazin-7-yl)-6-(pyrazolo[1,5-a]pyrimidin-3-yl)-1H-pyrazolo[4,3-c]pyridine-3-carboxamido)ethyl)piperidine-4-carboxylate] | 5.01 to 50.1 | kkk (200>ratio≥100)
7 | 5.01 to 50.1 | ≤ 5.01 | ≤ 5.01 | ≤ 5.01 | COc1cc2c(cc1-n1nc(C(=O)NCCN3CCC(C(=O)OC4CN(C)C4)CC3)c3cnc(-c4cnn5cccnc45)cc31)OCCN2 [Example 21, 1-methylazetidin-3-yl 1-(2-(1-(6-methoxy-3,4-dihydro-2H-benzo[b][1,4]oxazin-7-yl)-6-(pyrazolo[1,5-a]pyrimidin-3-yl)-1H-pyrazolo[4,3-c]pyridine-3-carboxamido)ethyl)piperidine-4-carboxylate] | ≤ 5.01 | kkkk (ratio≥200)
8 | 5.01 to 50.1 | ≤ 5.01 | ≤ 5.01 | ≤ 5.01 | CCOC(=O)C1(F)CCN(CCNC(=O)c2nn(-c3cc4c(cc3OC)NCCO4)c3cc(-c4cnn5cccnc45)ncc23)CC1 [Example 28, ethyl 4-fluoro-1-(2-(1-(6-methoxy-3,4-dihydro-2H-benzo[b][1,4]oxazin-7-yl)-6-(pyrazolo[1,5-a]pyrimidin-3-yl)-1H-pyrazolo[4,3-c]pyridine-3-carboxamido)ethyl)piperidine-4-carboxylate] | 5.01 to 50.1 | –
9 | 5.01 to 50.1 | ≤ 5.01 | ≤ 5.01 | ≤ 5.01 | COc1cc2c(cc1-n1nc(C(=O)NCCN3CCC(C(=O)OCC4(C#N)CC4)CC3)c3cnc(-c4cnn5cccnc45)cc31)OCCN2 [Example 53, (1-cyanocyclopropyl)methyl 1-(2-(1-(6-methoxy-3,4-dihydro-2H-benzo[b][1,4]oxazin-7-yl)-6-(pyrazolo[1,5-a]pyrimidin-3-yl)-1H-pyrazolo[4,3-c]pyridine-3-carboxamido)ethyl)piperidine-4-carboxylate] | ≤ 5.01 | kkkk (ratio≥200)
